Source: patent publication US6448294B1, “Biphenyl compounds and their use as oestrogenic agents” (Aventis Pharma S.A., priority 1996, dated 2002)

Target: T1, recombinant human oestrogen receptor (Homo sapiens, UniProt P03372)
T1 construct: made in house; host or cells: SF9 insect cells (ATCC CRL1711), baculovirus
T1 sequence (P03372 1-595): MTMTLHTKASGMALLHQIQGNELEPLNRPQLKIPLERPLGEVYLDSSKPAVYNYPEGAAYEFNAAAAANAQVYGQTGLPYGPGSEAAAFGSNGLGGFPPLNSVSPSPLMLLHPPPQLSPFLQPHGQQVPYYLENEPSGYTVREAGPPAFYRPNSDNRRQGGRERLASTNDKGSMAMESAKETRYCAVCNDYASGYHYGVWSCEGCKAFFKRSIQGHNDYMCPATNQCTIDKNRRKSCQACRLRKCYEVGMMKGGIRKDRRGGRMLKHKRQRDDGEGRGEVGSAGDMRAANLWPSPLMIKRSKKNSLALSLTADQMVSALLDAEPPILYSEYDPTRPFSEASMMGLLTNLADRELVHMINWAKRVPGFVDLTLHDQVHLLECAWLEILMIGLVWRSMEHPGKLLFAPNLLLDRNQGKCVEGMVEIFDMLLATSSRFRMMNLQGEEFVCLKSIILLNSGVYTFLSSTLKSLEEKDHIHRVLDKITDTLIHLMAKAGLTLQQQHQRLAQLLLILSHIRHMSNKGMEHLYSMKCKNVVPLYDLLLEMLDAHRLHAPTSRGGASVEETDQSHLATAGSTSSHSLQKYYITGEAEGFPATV
Experiment: Human oestrogen receptor (HOR) competitive binding with tritiated oestradiol, relative bond affinity (RBA)
Conditions: RBA=100(CH)/(CX), incubation at 0° C. for 24 hours, cytosolic extract of SF9 cells
Source text: A cytosolic extract of SF9 cells containing the recombinant human oestrogen receptor is obtained by overexpression in an insect-Baculovirus cell system, according to the general methodology described by N. R. WEBB et al. (Journal of Methods in Cell and Molecular Biology, (1990) Vol.2 No. 4, 173-188) and the application of which is described for the expression of human hormonal receptors, for example the human glucocorticoid receptor (G. SRINIVASAN et al. Molecular Endocrinology (1990) vol 4 No. 2 209-216).
The BaculoGold Transfection Kit (PharMingen, reference 21000K) is used to generate the recombinant baculovirus containing the cDNA fragment described in the expression vector HEGO by L. TORA et al. (The EMBO Journal (1989) vol. 8 No. 7 1981-1986), containing the region coding for the wild-type human oestrogen receptor with a glycine in position 400. […]
The supernatant is incubated at 0° C. for 24 hours with a constant concentration (T) of tritiated oestradiol in the presence of increasing concentrations of either unlabelled oestradiol (0-1000×10^−9M), or of unlabelled product to be tested (0-25000×10^−9M). The concentration of bound tritiated oestradiol (B) is then measured in each incubate by the technique of adsorption with carbon dextran. […]
The relative bond affinity (RBA) of the test product is calculated by the equation: RBA=100(CH)/(CX).

Relative bond affinity (RBA), HOR, oestradiol = 100, 24 hours | SMILES
28 | CN(C)CCOc1ccc(-c2c(-c3ccc(O)cc3)ccc3cc(O)ccc23)cc1 [Example 1, 5-[-4-[2-(Dimethylamino)ethoxy]phenyl] 6-(4-Hydroxyphenyl) 2-Naphthalenol]
49 | Oc1ccc(-c2ccc3cc(O)ccc3c2Cl)cc1 [Example 2, 5-Chloro-6-(4-hydroxyphenyl)-2-naphthalenol]
